{"source": "paper PMC8220105", "about": "(Computational and Structural Biotechnology Journal, 2021)", "target": "p38α MAPK (Homo sapiens, UniProt Q16539)", "sequence (Q16539 2-360)": "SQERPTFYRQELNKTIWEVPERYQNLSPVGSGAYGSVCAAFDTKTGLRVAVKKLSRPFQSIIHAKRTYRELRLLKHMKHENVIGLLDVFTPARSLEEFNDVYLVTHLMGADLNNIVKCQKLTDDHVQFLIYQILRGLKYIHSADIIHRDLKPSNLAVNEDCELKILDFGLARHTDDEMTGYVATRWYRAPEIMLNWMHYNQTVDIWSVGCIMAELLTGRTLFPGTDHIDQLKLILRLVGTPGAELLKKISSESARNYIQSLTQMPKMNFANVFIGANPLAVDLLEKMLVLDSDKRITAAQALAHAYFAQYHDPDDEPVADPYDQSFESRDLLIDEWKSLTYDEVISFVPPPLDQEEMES", "test": "microscale thermophoresis", "type": "binding", "data": [{"smiles": "COC(=O)[C@@]12OC[C@]34[C@H]([C@@H](O)[C@@H]1O)[C@@]1(C)CC(=O)C(O)=C(C)[C@@H]1C[C@H]3OC(=O)[C@H](OC(=O)CC(C)C)[C@@H]24", "note": "[bruceine A]", "values": [{"measurement": "Kd", "value": 31, "unit": "nM"}]}]}
